In paper PMC5448077, “Development of an orally available inhibitor of CLK1 for skipping a mutated dystrophin exon in Duchenne muscular dystrophy” (Scientific Reports, 2017):

How the values were obtained:
[1] = target: Haspin (Homo sapiens, UniProt Q8TF76); test: recombinant kinase panel (IMAP or mobility shift assay), percent inhibition at […] TG693; type: biochemical; conditions: read-out: % inhibition at 1 μM
[2] = target: T1, PDHK2 (Homo sapiens, UniProt Q15119); test: biochemical
T1 construct: gene PDK2
Outline: (§1)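 Human kinases phosphorylating kinase-specific synthetic peptides, assayed by mobility shift (MSA) or IMAP fluorescence polarization, in 20 mM HEPES pH 7.5, 0.01% Triton X-100, 2 mM DTT with substrate/ATP-metal. Reactions ran 1 or 5 h at room temperature; activity = P/(P + S) from product and substrate peak heights.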

[3] = target: T2, CHK1 (Homo sapiens, UniProt O14757); test: biochemical
T2 construct: gene CHEK1
T2 sequence (O14757 whole entry): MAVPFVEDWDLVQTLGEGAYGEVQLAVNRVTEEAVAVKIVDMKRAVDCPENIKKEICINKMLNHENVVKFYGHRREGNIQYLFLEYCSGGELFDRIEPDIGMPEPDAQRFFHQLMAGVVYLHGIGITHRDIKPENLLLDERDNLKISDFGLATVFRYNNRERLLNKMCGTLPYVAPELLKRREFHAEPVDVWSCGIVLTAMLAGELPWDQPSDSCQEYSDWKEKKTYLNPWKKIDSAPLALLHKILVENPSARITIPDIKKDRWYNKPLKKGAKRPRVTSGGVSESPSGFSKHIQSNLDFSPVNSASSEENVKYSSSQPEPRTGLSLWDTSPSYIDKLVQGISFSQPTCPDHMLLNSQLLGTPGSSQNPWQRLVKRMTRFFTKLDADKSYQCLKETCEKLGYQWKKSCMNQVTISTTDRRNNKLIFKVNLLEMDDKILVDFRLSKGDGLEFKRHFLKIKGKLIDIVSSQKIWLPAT
Outline: as §1

[4] = target: FLT4 (Homo sapiens, UniProt P35916); test: biochemical
Chain of FLT4 (P35916 whole entry): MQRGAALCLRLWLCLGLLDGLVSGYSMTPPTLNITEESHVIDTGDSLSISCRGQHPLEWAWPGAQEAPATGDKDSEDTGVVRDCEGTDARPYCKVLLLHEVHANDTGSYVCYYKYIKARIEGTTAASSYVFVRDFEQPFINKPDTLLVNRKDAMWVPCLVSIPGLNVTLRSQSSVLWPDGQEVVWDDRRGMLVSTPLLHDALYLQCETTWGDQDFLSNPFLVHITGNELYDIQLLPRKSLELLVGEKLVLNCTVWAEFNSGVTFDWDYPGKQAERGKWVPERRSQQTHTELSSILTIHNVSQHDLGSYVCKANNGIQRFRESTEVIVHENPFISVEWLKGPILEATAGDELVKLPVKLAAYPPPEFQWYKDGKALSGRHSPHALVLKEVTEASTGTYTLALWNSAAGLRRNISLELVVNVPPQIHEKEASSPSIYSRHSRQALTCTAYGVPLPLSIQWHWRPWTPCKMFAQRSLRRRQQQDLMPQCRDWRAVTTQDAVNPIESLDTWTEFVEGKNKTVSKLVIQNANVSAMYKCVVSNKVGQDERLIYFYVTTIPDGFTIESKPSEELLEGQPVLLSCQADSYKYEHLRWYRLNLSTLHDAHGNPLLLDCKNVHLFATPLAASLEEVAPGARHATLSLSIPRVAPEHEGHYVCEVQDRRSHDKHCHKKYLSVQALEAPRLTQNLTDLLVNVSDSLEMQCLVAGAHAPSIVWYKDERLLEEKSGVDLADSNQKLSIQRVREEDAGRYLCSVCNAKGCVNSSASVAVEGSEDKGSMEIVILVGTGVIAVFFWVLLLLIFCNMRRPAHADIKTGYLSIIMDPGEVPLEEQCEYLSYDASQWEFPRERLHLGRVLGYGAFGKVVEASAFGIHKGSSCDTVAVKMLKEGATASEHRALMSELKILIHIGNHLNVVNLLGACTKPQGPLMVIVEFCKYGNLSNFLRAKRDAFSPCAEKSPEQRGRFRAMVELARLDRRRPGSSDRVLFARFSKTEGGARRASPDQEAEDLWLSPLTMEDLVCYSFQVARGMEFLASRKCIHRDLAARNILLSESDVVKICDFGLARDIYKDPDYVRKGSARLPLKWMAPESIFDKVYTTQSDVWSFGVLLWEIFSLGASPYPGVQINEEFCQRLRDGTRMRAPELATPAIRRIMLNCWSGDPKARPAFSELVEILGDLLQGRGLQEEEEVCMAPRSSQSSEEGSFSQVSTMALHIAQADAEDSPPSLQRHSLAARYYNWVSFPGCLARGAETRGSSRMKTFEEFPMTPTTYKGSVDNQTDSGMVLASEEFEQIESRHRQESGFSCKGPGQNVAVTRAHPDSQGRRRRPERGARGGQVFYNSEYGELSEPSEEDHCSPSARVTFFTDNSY
Outline: as §1

[5] = target: T3, PKCδ (Homo sapiens, UniProt Q05655); test: biochemical
T3 construct: gene PRKCD
T3 sequence (Q05655 whole entry): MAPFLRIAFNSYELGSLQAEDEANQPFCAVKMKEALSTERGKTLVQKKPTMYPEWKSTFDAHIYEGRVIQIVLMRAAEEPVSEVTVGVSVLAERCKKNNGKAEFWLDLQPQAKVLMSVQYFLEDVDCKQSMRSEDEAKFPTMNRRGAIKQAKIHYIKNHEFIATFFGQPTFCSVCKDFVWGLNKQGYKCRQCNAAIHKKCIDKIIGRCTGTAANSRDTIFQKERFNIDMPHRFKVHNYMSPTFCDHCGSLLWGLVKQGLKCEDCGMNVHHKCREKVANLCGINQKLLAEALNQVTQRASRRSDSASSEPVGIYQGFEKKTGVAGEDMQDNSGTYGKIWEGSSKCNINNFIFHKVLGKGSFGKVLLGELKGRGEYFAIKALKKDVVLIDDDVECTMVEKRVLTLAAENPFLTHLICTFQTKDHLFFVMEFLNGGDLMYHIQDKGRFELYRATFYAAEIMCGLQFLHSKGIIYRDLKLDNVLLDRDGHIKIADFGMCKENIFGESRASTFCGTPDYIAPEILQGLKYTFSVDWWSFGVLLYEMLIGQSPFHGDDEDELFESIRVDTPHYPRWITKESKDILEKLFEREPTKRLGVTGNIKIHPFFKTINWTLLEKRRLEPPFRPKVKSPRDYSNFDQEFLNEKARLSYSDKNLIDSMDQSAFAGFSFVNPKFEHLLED
Outline: as §1

[6] = target: T4, MSSK1 (Homo sapiens, UniProt Q9UPE1); test: biochemical
T4 construct: gene SRPK3
T4 sequence (Q9UPE1 whole entry): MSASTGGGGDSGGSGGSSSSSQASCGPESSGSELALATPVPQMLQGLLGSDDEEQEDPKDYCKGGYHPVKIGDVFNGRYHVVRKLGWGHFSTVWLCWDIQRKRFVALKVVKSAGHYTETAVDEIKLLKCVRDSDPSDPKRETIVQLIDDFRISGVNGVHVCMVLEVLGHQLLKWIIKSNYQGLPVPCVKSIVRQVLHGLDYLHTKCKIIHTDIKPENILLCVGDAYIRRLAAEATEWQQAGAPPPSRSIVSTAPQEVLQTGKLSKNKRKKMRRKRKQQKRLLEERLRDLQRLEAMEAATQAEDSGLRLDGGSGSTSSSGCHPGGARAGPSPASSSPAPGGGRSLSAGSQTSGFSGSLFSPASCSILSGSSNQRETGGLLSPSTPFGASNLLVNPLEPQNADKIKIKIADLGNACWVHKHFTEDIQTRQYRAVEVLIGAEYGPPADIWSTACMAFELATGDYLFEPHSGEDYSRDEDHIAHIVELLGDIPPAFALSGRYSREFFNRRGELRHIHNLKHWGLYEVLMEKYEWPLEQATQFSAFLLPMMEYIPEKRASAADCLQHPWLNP
Outline: as §1

[7] = target: T5, p38δ (Homo sapiens, UniProt O15264); test: biochemical
T5 construct: gene MAPK13
T5 sequence (O15264 whole entry): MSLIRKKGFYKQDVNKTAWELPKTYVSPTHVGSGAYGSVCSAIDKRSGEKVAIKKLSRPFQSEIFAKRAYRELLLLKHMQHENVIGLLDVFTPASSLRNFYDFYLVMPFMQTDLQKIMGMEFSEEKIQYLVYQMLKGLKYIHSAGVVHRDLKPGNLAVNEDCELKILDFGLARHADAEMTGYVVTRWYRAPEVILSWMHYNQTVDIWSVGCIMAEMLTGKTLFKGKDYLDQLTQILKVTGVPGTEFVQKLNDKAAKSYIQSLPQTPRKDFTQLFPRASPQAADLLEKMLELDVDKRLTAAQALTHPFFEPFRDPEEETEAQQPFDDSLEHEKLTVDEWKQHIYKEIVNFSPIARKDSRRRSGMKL
Outline: as §1

[8] = target: T6, PKR (Homo sapiens, UniProt P19525); test: biochemical
T6 construct: gene EIF2AK2
Outline: as §1

[9] = target: MAPKAPK3 (Homo sapiens, UniProt Q16644); test: biochemical
Chain of MAPKAPK3 (Q16644 whole entry): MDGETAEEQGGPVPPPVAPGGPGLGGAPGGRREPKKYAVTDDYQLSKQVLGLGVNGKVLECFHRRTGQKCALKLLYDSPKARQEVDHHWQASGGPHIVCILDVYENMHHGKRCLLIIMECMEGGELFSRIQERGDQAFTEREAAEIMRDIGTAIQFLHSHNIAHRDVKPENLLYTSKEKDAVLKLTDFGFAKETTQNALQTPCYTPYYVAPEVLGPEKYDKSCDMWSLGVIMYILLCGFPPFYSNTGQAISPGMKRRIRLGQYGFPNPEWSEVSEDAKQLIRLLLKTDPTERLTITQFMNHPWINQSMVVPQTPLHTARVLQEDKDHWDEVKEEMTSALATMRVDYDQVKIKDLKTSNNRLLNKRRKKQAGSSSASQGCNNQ
Outline: as §1

[10] = target: T7, PKACβ (Homo sapiens, UniProt P22694); test: biochemical
T7 construct: gene PRKACB
Outline: as §1

Chain of Haspin (Q8TF76 whole entry): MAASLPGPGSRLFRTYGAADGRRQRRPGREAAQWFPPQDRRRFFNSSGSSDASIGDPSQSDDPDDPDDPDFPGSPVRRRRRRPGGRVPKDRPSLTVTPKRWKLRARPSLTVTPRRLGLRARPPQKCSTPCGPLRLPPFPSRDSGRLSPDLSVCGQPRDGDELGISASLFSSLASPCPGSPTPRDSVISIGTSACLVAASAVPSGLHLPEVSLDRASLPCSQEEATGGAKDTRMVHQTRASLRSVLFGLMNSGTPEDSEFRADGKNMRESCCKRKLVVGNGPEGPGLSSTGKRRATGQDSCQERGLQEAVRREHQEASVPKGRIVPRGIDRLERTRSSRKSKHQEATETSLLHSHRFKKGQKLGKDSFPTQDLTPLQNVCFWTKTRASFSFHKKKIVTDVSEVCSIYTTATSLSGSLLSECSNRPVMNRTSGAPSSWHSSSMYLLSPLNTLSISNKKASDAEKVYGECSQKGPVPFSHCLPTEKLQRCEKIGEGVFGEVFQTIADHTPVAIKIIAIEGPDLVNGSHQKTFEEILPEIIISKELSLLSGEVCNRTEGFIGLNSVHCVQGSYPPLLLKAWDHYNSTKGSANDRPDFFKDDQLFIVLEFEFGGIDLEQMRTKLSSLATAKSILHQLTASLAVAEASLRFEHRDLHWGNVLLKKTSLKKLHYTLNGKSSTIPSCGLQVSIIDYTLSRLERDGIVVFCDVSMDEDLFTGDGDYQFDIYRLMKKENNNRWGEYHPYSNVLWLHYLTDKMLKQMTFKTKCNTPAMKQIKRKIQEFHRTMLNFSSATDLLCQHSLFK

Compound: c1cc(-c2ccc3[nH]ncc3c2)ccn1 [TG693, 5-(4-pyridinyl)-1H-indazole]
- inhibition at 1 µM [1]: > 90%
- inhibition at 1 µM [2]: -0.8%
- inhibition at 1 µM [3]: 1.7%
- inhibition at 1 µM [4]: -0.3%
- inhibition at 1 µM [5]: 1.5%
- inhibition at 1 µM [6]: -7.3%
- inhibition at 1 µM [7]: -0.7%
- inhibition at 1 µM [8]: 1.2%
- inhibition at 1 µM [9]: -13.1%
- inhibition at 1 µM [10]: 3.1%
